The series is described as follows: physchem. The note with it: ethanol-water.

The molecule `Sc1ccc(Cl)c(Cl)c1` [3,4-dichlorophenyl mercaptan] yielded a pKa of 6.2.

In turn, `CS(=O)(=O)c1cccc(S)c1` [meta-methylsulfonylphenyl mercaptan] had a pKa of 5.9.

`Fc1c(F)c(F)c(S)c(F)c1F` [pentafluorophenyl mercaptan] yielded a pKa of 2.7.

As to `O=S(=O)(O)c1cccc(S)c1` [meta-mercaptobenzenesulfonic acid], the pKa came out at 5.9. The value for `FC(F)(F)c1cc(S)ccc1Cl` [3-trifluoromethyl-4-chlorophenyl mercaptan] was 6.2; that for `Sc1cccc(Cl)c1` [meta-chlorophenyl mercaptan] was 6.7.

For `O=[N+]([O-])c1ccc(S)c([N+](=O)[O-])c1` [2,4-dinitrophenyl mercaptan], the pKa turned out to be 4. Take `O=C(O)c1ccc(S)cc1` [para-carboxyphenyl mercaptan]: the pKa was found to be 5.9. The value for `O=C(S)c1ccccc1` [thiobenzoic acid] was 6.3; that for `O=[N+]([O-])c1cccc(S)c1` [meta-nitrophenyl mercaptan] was 5.9; that for `FC(F)(F)c1ccc(Cl)c(S)c1` [2-chloro-5-trifluoromethylphenyl mercaptan] was 6.

Take `Sc1ccc(Cl)cc1` [para-chlorophenyl mercaptan]: the pKa stood at 7. Molecule `CC(=O)c1ccc(S)cc1` [para-acetyl phenyl mercaptan] came in with a pKa of 5.9. As for `N#Cc1cccc(S)c1` [meta-cyanophenyl mercaptan], the pKa stood at 6.3. The value for `N#Cc1ccc(S)cc1` [para-cyanophenyl mercaptan] was 6.

For `O=C(O)c1ccccc1S` [orthocarboxyphenyl mercaptan], the pKa was 5.6. The value for `Fc1cccc(S)c1` [meta-fluorophenyl mercaptan] was 6.8; that for `Sc1cc(Cl)c(Cl)cc1Cl` [2,4,5-trichlorophenyl mercaptan] was 4.2; that for `O=S(=O)(O)c1ccc(S)cc1` [para-mercaptobenzenesulfonic acid] was 5.7. The value for `Sc1cccc(I)c1` [meta-iodophenyl mercaptan] was 6.8; that for `Sc1ccc(Br)cc1` [para-bromophenyl mercaptan] was 7; that for `Sc1c(Cl)c(Cl)c(Cl)c(Cl)c1Cl` [pentachlorophenyl mercaptan] was 3.5. The molecule `CC(=O)c1cccc(S)c1` [meta-acetyl phenyl mercaptan] showed a pKa of 6.9.

As to `Fc1ccc(S)cc1` [para-fluorophenyl mercaptan], the pKa stood at 7.5. Take `CS(=O)(=O)c1ccc(S)cc1` [para-methylsulfonylphenyl mercaptan]: the pKa worked out at 5.6. The value for `Sc1ccc(I)cc1` [para-iodophenyl mercaptan] was 6.9. In the case of `Sc1cc(Cl)cc(Cl)c1` [3,5-dichlorophenyl mercaptan], the pKa came to 5.8. The value for `Sc1cccc(Br)c1` [meta-bromophenyl mercaptan] was 6.8.

A word on the pKa: it is the pH at which an ionisable group is half protonated.

The values above are taken from patent US4154967A, “Process for preparation of phenols” (Mitsui Petrochemical Industries, Ltd., priority 1976, dated 1979).
